Consider 2 compounds from patent US10722582B2, “Targeted antimicrobial photodynamic therapy” (Purdue Research Foundation, priority 2018, dated 2020).

The conditions of data set [1]: Rish et al. 2007; cited from earlier work.
In a further data set the test system is S. aureus (PCI 1203). Put plainly: Competitive hemin uptake assay (fluorescence microscopy). In kind it is cell-based, Staphylococcus aureus. The conditions noted are these: for Fluorescence after 15 min / Fluorescence after 15 min exposure + 1 equiv. hemin: Fe-deficient conditions (TS media containing 3 mM bipy), no background subtraction. On the procedure: To elucidate the relevant structural features for the specific uptake of Ga-PpIX by S. aureus, we performed a competitive uptake assay using one equivalent of hemin against Ga-PpIX, PpIX, and eleven other fluorescent PpIX derivatives, with evaluation by fluorescence microscopy after 15 minutes of co-incubation (FIG. 5 and Table 4). These studies were partly guided by insights taken from the X-ray structures of hemin and Ga-PpIX within the binding pocket of IsdH: (i) coordination of the metal center by an apical tyrosine residue; (ii) the flanking of vinyl groups on pyrrole rings A and B against nearby aromatic residues; and (iii) the extension and presumed hydration of the propionyl groups (rings C and D) outside of the binding pocket.
Bacteria were cultured and assayed in iron-deficient media unless otherwise noted. A stock solution of Ga-PpIX (14.6 μM) was prepared by dispersing 5 mg in 1 mL of 10% DMSO in PBS for 10 minutes in an ultrasonic cleaning bath protected from light, followed by filtration and 10× dilution in PBS just prior to use. Bacterial suspensions (0.5 mL) were treated with freshly prepared solutions of PpIX derivatives for specified periods (5-15 min), then harvested by centrifugation at 5.2 g for 5 minutes, redispersed twice in 0.5 mL deionized water, and centrifuged a third time. A 10-μL aliquot of concentrated bacteria was deposited onto a glass slide and dried in air for 20 min, then imaged by fluorescence microscopy as described above. For details on fluorescence image processing and quantitative analysis, see Supporting Information.
S. aureus (PCI 1203; ATCC 10537) was first cultured in standard TS broth, then in media containing 3 mM bipyridine. Bacteria were pelleted and washed with PBS buffer three times, then resuspended to a final concentration of 10^8 cfu/mL. Stock solutions of hemin and PpIX derivatives 1-13 were prepared at initial concentrations of 292 μM; hemin and fluorescent PpIX solutions were mixed in a 1:1 ratio (0.5 mL), then added to 0.5 mL of bacterial suspension and allowed to sit for 15 min at room temperature. For control studies, hemin or fluorophore solutions were substituted with PBS to maintain constant […]. Bacteria were harvested and washed as described above, then evaluated by fluorescence microscopy for relative uptake efficiency.
Darkfield and fluorescent images were acquired in succession, with the former used to map regions of interest (ROIs) by tracing the outlines of bacteria (FIG. 8). Three images were acquired for each sample; in each case, the tracing map was overlaid onto the fluorescence image to calculate pixel intensities within each ROI, using the mean pixel intensity for quantitative analysis. Bacteria were also imaged without treatment with PpIX analogs, most of which produced values close to that of background except for Salmonella enterica, which served as the upper limit of autofluorescence (cf. FIG. 4). Data collection and image analyses were performed by the same user to ensure consistency for comparative analysis.

For another data set, the system named is S. aureus. In words: Antibacterial activity assay with LED light. In kind it is cell-based, Staphylococcus aureus. On the procedure:
Antibacterial activity assay general protocol: Used LED light to test conditions. Bacteria were grown in TS broth, followed by 3 mM bipyridine in TS broth until log phase. Bacteria were then diluted with PBS, to OD 0.1 (˜10^) and then to ˜10^7 cfu/mL. 100 uL of bacteria were placed in 96 well plates with the appropriate GaPpIX concentration. 2× serial dilutions were then done to obtain other GaPpIX concentrations. Each concentration was done in triplicate. Bacteria were left incubating and irradiating for different amount of times at different light powers or left in the dark. 10× Serial dilutions were done and bacteria were plated for colony counting using the drop-plate technique. Colonies were counted after 24 hours. As reported herein, a 3-log reduction equals measurable antimicrobial action; a 6-log reduction equals total eradication.
Stock solution preparation (AVM-3-36, 10 nm AgNP). Prepared a solution of (AVM-2-273) GaPpIX-apoHb 1 mg/mL in MP H2O, deaerated. Took 10 mL of 10 nm AgNPs, centrifuged at 900 G for 5 min (Beckman, 3100 RPM), took supernantant and added 200 uL of GaPpIXHb. After overnight, centrifuged 3000 RPM g for 5 minutes (Beckman). Took supernantant and centrifuged using a 100 K CentriCon tube at 4000 RPM for 5 minutes, 3×. Added 15 mM borate buffer to NPs. Based on calibration curve, the stock solution is 1.94 ug/mL AgNP, so stock: 79 μg/mL AgNP, 10.37 μg/mL GaPpIXHb, 0.446 μg/mL GaPpIX (refer to AVM-2-293A and AVM-3-3).
The following antibacterial activity measurements were assayed in the presence of AgNP.

Data set [2] deals with S. aureus (PCI 1203; ATCC 10537). In words: aPDI with CFL irradiation (406 nm), planktonic bacteria, drop-plate colony count. In kind it is cell-based, Staphylococcus aureus. The note with it: for potency relative to dark toxicity (0 min exposure): 3-log reduction. As to the method:
The aPDI properties of Ga-PpIX were compared against PpIX, whose photosensitizer activities are well known and whose optical profile is similar to that of Ga-PpIX (FIG. 2).
All bacterial strains were cultured at 37° C. in an aerobic atmosphere unless otherwise noted. […] Bacterial counts were estimated in units of cfu/mL by plating serial dilutions onto agar plates, followed by incubation for 16 hours at 37° C. […] Further details and variations on iron-deficient culture conditions are provided in Supporting Information.
Antimicrobial assays were performed on planktonic bacteria at 10^7 cfu/mL with variable exposure times to CFL irradiation, followed by plating on agar and incubation at 37° C. […] The irradiated bacteria were plated onto agar in serial tenfold dilutions (10^7-10^1 cfu/mL); controls included one set of wells without photosensitizer, and one set of wells with photosensitizer but without 15 min irradiation, prior to plating (dark toxicity). Bacterial counts were determined by the drop-plate method using TS-agar plates, and reported in colony-forming units per milliliter (cfu/mL).
The irradiation source consisted of a 20-W compact fluorescent lightbulb (CFL; Sunlite SL20/BLB) housed in an ellipsoidal reflector dome.

Where [3] appears, read: one equivalent of hemin, 15 minutes of co-incubation.
[4] abbreviates: 0 min (dark), no irradiation (dark toxicity).
The mark [5] stands for this setting: 15 min CFL 406 nm, 12.4 mW/cm^2 (11.2 J/cm^2).

As for Ga(III)-protoporphyrin [Ga-PpIX (1)], the “molar extinction coefficient, previous reports” value in data set [1] was 250000 M⁻¹ cm⁻¹. The “Fluorescence after 15 min” value with S. aureus (PCI 1203) is 42.55 a.u. For the same compound, the “Fluorescence after 15 min exposure + 1 equiv. hemin” value in the data set on S. aureus (PCI 1203) is 10.0 a.u. Moreover, the “reduction in fluorescence by competition with hemin” value in the data set with S. aureus (PCI 1203) (setting [3]) was “greater than 80%”. For the same compound, in the data set with S. aureus, the “concentration for 3-log reduction (measurable antimicrobial action)” value was 59 nM. Also, the “concentration for 6-log reduction (total eradication)” value in the data set with S. aureus is 235 nM. Besides, the “Antimicrobial activity (minimum 3-log CFU reduction)” value is on record as more than 60 μM in data set [2] (setting [4]); 3.75 μM in data set [2] (5 min CFL 406 nm, 12.4 mW/cm^2 (3.7 J/cm^2)); 0.47 μM in data set [2] (setting [5]). The “Eradication (6 log reduction)” value is 15 μM in data set [2] (5 min CFL (3.7 J/cm^2)), 7.5 μM in data set [2] (15 min CFL (11.2 J/cm^2)) and 120 μM in data set [2] (No irradiation (dark toxicity)). In addition, the entries for the “potency relative to dark toxicity (0 min exposure)” value in data set [2] (5 min CFL) and in data set [2] (15 min CFL) were more than 16x and more than 128x, respectively. Further, the “concentration for >99.9% reduction” value in data set [2] (15 minutes of CFL irradiation) came out at 470 nM. Besides, the “increase in potency relative to Ga-PpIX dark toxicity (>99.9% reduction)” value in data set [2] (15 minutes of CFL irradiation) amounted to 128 fold. Also, in data set [2] (15 minutes of CFL irradiation), the “increase in potency relative to Ga-PpIX dark toxicity (total eradication, >6 log reduction)” value came to 16 fold.
As for `C=CC1=C(C)c2cc3[nH]c(cc4nc(cc5[nH]c(cc1n2)c(C)c5CCC(=O)O)C(CCC(=O)O)=C4C)c(C)c3C=C` [PpIX (2), PpIX, reference compound], in the data set with S. aureus (PCI 1203), the “Fluorescence after 15 min” value is recorded as 16.70 a.u and the “Fluorescence after 15 min exposure + 1 equiv. hemin” value stood at 9.4 a.u. For the same compound, the “effect of hemin competition on uptake” value with S. aureus (PCI 1203) (setting [3]) is “moderately affected by hemin”. In addition, in the data set with S. aureus, the “concentration for 3-log reduction (measurable antimicrobial action)” value was 940 nM and the “concentration for 6-log reduction (total eradication)” value came out at 1900 nM. Also, the “Antimicrobial activity (minimum 3-log CFU reduction)” value in data set [2] (setting [4]) is 36 μM. For the same compound, the “Antimicrobial activity (minimum 3-log CFU reduction)” value in data set [2] (setting [5]) was determined as 1.1 μM. In addition, the “Eradication (6 log reduction)” value in data set [2] (15 min CFL (11.2 J/cm^2)) stood at 2.3 μM. The “potency relative to dark toxicity (0 min exposure)” value in data set [2] (15 min CFL) is on record as 32x. For the same compound, in data set [2] (No irradiation (dark toxicity)), the “Eradication (6 log reduction)” value turned out to be 73 μM.
